From patent USRE50528E1, “Compounds and compositions for modulating EGFR mutant kinase activities” (Yuhan Corporation, priority 2014, dated 2025)

How the values were obtained:
EGFR mutant Del19/T790M = molecular target: T1, EGFR mutant Del19/T790M (Homo sapiens, UniProt P00533, DEL746-750/T790M); assay: Kinase inhibition assay, EGFR del E746-A750/T790M; type: biochemical; conditions: read-out: EGFR mutants Del19/T790M
T1 construct: truncated human JAK3, EGFR mutants such as del E746-A750; purchased Carna Biosciences
T1 sequence (P00533 with tags, fused parts or gaps DEL746-750/T790M limits assumed): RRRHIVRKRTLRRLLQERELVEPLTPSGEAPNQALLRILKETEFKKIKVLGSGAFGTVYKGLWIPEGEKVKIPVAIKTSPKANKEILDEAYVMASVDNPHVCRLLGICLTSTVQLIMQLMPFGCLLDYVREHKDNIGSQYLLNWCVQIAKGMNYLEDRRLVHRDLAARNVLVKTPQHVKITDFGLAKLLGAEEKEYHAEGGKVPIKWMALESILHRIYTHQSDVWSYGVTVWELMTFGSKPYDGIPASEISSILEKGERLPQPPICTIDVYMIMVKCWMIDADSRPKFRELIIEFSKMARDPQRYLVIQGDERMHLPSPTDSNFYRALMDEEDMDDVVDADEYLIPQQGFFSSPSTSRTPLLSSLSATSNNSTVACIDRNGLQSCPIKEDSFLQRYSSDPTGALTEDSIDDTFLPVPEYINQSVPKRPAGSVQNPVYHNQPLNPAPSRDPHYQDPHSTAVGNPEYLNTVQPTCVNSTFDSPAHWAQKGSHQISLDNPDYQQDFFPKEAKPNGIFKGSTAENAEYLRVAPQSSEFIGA

SYK = molecular target: T2, SYK (Homo sapiens, UniProt P43405); assay: Kinase inhibition assay, SYK; type: biochemical; conditions: biochemical potency;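 note: purified full-length human SYK pre-incubated 30 min with compound, then ULight-TK peptide phosphorylation for 1 h, detected with Europium-labeled antibody in Lance buffer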
T2 construct: Purified human, full-length SYK, KDR; purchased Carna Biosciences

EGFR mutant L858R/T790M = molecular target: T3, EGFR mutant L858R/T790M (Homo sapiens, UniProt P00533, L858R/T790M); assay: Kinase inhibition assay, EGFR L858R/T790M; type: biochemical; conditions: read-out: EGFR mutants L858R/T790M;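 note: truncated human enzyme preincubated two hours with compound, then one hour with one millimolar ATP and ULight-PolyGT peptide, Europium-labeled antibody detection, IC50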
T3 construct: truncated human JAK3, EGFR mutants such as del E746-A750; purchased Carna Biosciences
T3 sequence (P00533 669-1210 T790M/L858R limits assumed): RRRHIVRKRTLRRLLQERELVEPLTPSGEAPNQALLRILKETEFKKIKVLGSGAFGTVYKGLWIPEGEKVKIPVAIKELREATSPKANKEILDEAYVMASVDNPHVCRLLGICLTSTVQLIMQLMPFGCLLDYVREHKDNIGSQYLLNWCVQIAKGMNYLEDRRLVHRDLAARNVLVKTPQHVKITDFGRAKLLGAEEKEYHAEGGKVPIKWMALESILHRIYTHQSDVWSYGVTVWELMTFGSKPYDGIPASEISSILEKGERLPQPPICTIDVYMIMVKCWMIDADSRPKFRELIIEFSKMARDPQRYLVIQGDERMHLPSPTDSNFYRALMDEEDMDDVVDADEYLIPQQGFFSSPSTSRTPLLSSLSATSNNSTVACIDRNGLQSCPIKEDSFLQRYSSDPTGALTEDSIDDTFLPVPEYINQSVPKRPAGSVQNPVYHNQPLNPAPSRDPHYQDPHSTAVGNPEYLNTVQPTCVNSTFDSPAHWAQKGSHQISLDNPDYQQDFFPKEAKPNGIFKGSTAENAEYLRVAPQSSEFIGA

[1] = molecular target: T4, EGFR mutant Del19 (E746-A750) (Homo sapiens, UniProt P00533, DEL746-750); assay: Kinase inhibition assay, EGFR del E746-A750; type: biochemical; conditions: read-out: EGFR mutants Del19 (E746-A750);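 note: truncated human EGFR mutant kinase, two-hour preincubation with compound, then one-hour reaction with ATP and ULight-PolyGT peptide, LANCE Europium-antibody phosphorylation readout, IC50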
T4 construct: truncated human JAK3, EGFR mutants such as del E746-A750; purchased Carna Biosciences
T4 sequence (P00533 with tags, fused parts or gaps DEL746-750 limits assumed): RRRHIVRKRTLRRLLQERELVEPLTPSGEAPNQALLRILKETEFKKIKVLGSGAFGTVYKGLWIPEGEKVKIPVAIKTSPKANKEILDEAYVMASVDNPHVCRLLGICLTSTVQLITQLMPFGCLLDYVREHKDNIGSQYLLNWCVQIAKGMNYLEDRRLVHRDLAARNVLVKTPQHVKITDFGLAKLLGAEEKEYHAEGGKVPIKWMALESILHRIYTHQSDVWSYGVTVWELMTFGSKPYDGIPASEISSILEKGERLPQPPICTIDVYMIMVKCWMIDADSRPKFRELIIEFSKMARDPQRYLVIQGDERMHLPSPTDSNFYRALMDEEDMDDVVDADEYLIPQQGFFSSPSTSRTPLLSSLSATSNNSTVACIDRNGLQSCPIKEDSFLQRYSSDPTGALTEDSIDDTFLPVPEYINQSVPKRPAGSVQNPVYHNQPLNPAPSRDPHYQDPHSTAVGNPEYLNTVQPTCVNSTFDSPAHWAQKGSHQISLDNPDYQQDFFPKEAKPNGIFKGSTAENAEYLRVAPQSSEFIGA

EGFR mutant T790M = molecular target: T5, EGFR mutant T790M (Homo sapiens, UniProt P00533, T790M); assay: Kinase inhibition assay, EGFR mutant T790M; conditions: biochemical potency;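 note: truncated human EGFR mutant enzyme preincubated two hours with compound, then ATP plus ULight-PolyGT peptide for one hour, Europium-labeled antibody LANCE detection, IC50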
T5 construct: truncated human JAK3, EGFR mutants such as del E746-A750; purchased Carna Biosciences
T5 sequence (P00533 669-1210 T790M limits assumed): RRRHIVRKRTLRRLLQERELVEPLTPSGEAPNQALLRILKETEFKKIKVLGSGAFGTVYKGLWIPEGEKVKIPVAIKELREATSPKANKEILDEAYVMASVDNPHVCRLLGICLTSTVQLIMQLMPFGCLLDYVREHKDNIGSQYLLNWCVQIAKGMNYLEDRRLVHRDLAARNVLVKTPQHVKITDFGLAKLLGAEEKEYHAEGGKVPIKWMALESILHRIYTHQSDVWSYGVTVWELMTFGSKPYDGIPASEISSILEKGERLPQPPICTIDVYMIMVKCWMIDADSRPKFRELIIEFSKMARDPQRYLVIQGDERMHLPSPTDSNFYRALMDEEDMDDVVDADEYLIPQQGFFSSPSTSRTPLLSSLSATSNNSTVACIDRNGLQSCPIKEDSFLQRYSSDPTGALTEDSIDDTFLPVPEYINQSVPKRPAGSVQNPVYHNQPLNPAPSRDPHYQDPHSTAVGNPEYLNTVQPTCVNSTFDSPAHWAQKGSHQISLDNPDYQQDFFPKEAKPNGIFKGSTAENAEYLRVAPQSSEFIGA

EGFR mutant L858R = molecular target: T6, EGFR mutant L858R (Homo sapiens, UniProt P00533, L858R); assay: Kinase inhibition assay, EGFR L858R; type: biochemical; conditions: read-out: EGFR mutants L858R;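 note: truncated human EGFR L858R kinase with compound preincubation, ULight-PolyGT peptide phosphorylation read by Europium-antibody Lance detection, IC50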
T6 construct: truncated human JAK3, EGFR mutants such as del E746-A750; purchased Carna Biosciences
T6 sequence (P00533 669-1210 L858R limits assumed): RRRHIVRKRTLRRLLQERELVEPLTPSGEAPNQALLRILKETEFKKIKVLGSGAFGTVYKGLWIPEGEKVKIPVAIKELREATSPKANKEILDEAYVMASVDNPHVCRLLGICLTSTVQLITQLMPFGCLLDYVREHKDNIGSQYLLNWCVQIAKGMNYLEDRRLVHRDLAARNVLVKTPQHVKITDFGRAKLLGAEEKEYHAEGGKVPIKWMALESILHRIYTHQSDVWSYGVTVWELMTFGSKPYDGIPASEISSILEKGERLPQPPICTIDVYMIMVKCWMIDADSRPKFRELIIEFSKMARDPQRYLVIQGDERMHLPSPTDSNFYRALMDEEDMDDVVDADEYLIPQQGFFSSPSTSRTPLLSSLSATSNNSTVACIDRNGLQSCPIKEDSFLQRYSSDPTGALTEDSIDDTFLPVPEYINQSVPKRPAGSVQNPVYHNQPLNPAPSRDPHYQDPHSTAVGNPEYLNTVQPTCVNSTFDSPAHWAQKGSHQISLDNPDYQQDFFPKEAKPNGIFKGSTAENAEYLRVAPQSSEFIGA

SMILES | IC50 (EGFR mutant Del19/T790M) [nM] | IC50 (SYK) [nM] | IC50 (EGFR mutant L858R/T790M) [nM] | IC50 [1] [nM] | IC50 (EGFR mutant T790M) [nM] | IC50 (EGFR mutant L858R) [nM]
C=CC(=O)Nc1cc(Nc2ncc(C)c(-n3cc(CN(C)C4CN(C)C4)cn3)n2)c(OC)cc1N1CCOCC1 [Compound 23, N-(4-methoxy-5-(5-methyl-4-(4-((methyl(1-methylazetidin-3-yl)amino)methyl)-1H-pyrazol-1-yl)pyrimidin-2-ylamino)-2-morpholinophenyl)acrylamide] | 201 to 1000 | > 1000 | 201 to 1000 | 201 to 1000 | 201 to 1000 | 
C=CC(=O)Nc1cc(Nc2nccc(-n3cc(CN4CC[C@H](N(C)C)C4)cn3)n2)c(OC)cc1N1CCOCC1 [Compound 35, (S)—N-(5-(4-(4-((3-(dimethylamino)pyrrolidin-1-yl)methyl)-1H-pyrazol-1-yl)pyrimidin-2-ylamino)-4-methoxy-2-morpholinophenyl)acrylamide] | 20 to 200 | > 1000 | 201 to 1000 | 201 to 1000 |  | 201 to 1000
C=CC(=O)Nc1cc(Nc2nccc(-n3cc(CN4CC[C@@H](N(C)C)C4)cn3)n2)c(OC)cc1N1CCOCC1 [Compound 39, (R)—N-(5-(4-(4-((3-(dimethylamino)pyrrolidin-1-yl)methyl)-1H-pyrazol-1-yl)pyrimidin-2-ylamino)-4-methoxy-2-morpholinophenyl)acrylamide] | 20 to 200 | > 1000 | 201 to 1000 | 201 to 1000 |  | 201 to 1000
C=CC(=O)Nc1cc(Nc2nccc(-n3cc(CN4CCC4)c(C)n3)n2)c(OC)cc1-c1ccccc1OC [Compound 68, N-(4-(4-(4-(azetidin-1-ylmethyl)-3-methyl-1H-pyrazol-1-yl)pyrimidin-2-ylamino)-2′,5-dimethoxybiphenyl-2-yl)acrylamide] | 20 to 200 | > 1000 | 20 to 200 | 20 to 200 |  | 201 to 1000
C=CC(=O)Nc1cc(Nc2nccc(-n3cc(CN4CCC4)c(C)n3)n2)c(OC)cc1N1CCC(F)(F)CC1 [Compound 69, N-(5-(4-(4-(azetidin-1-ylmethyl)-3-methyl-1H-pyrazol-1-yl)pyrimidin-2-ylamino)-2-(4,4-difluoropiperidin-1-yl)-4-methoxyphenyl)acrylamide] | < 20 | > 1000 | 20 to 200 | < 20 |  | 20 to 200
C=CC(=O)Nc1cc(Nc2nccc(-n3nc(C)c(CN4CCC4)c3C)n2)c(OC)cc1N1CCOCC1 [Compound 70, N-(5-(4-(4-(azetidin-1-ylmethyl)-3,5-dimethyl-1H-pyrazol-1-yl)pyrimidin-2-ylamino)-4-methoxy-2-morpholinophenyl)acrylamide] | 20 to 200 |  | 20 to 200 | 20 to 200 |  | 20 to 200
C=CC(=O)Nc1cc(Nc2nccc(-n3ccc(-c4ccccc4)n3)n2)c(OC)cc1N1CCN(C)CC1 [Compound 85, N-(4-methoxy-2-(4-methylpiperazin-1-yl)-5-(4-(3-phenyl-1H-pyrazol-1-yl)pyrimidin-2-ylamino)phenyl)acrylamide] | < 20 |  | 20 to 200 | < 20 | < 20 | 20 to 200
C=CC(=O)Nc1cc(Nc2nccc(-n3cc(CN(C)C)c(-c4cc(C)ccc4C)n3)n2)c(OC)cc1N1CCOCC1 [Compound 89, N-(5-(4-(4-((dimethylamino)methyl)-3-(2,5-dimethylphenyl)-1H-pyrazol-1-yl)pyrimidin-2-ylamino)-4-methoxy-2-morpholinophenyl)acrylamide] | < 20 |  | < 20 | 20 to 200 | 20 to 200 | 20 to 200
C=CC(=O)Nc1cc(Nc2nccc(-n3cc(CN4CCCC4)c(-c4ccccc4)n3)n2)c(OC)cc1N1CCOCC1 [Compound 90, N-(4-methoxy-2-morpholino-5-(4-(3-phenyl-4-(pyrrolidin-1-ylmethyl)-1H-pyrazol-1-yl)pyrimidin-2-ylamino)phenyl)acrylamide] | < 20 | > 1000 | < 20 | < 20 |  | 20 to 200
C=CC(=O)Nc1cc(Nc2nccc(-n3cc(CO)c(-c4ccccc4)n3)n2)c(OC)cc1N1CCOCC1 [Compound 91, N-(5-(4-(4-(hydroxymethyl)-3-phenyl-1H-pyrazol-1-yl)pyrimidin-2-ylamino)-4-methoxy-2-morpholinophenyl)acrylamide] | < 20 |  | 20 to 200 | < 20 | 201 to 1000 | 20 to 200
C=CC(=O)Nc1cc(Nc2nccc(-n3cc(CN(C)C)c(C(C)(C)C)n3)n2)c(OC)cc1N(C)C1COC1 [Compound 102, N-(5-(4-(3-tert-butyl-4-((dimethylamino)methyl)-1H-pyrazol-1-yl)pyrimidin-2-ylamino)-4-methoxy-2-(methyl(oxetan-3-yl)amino)phenyl)acrylamide] |  | > 1000 | < 20 | < 20 | < 20 | < 20
C=CC(=O)Nc1cc(Nc2nccc(-n3cc(CN(C)C)c(C(C)C)n3)n2)c(OC)cc1N(C)CCOC [Compound 112, N-(5-(4-(4-((dimethylamino)methyl)-3-isopropyl-1H-pyrazol-1-yl)pyrimidin-2-ylamino)-4-methoxy-2-((2-methoxyethyl)(methyl)amino)phenyl)acrylamide] | < 20 |  | < 20 | < 20 | < 20 | < 20
C=CC(=O)Nc1cc(Nc2nccc(-n3cc(CN4CCC4)c(C(C)C)n3)n2)c(OC)cc1N(C)CCOC [Compound 113, N-(5-(4-(4-(azetidin-1-ylmethyl)-3-isopropyl-1H-pyrazol-1-yl)pyrimidin-2-ylamino)-4-methoxy-2-((2-methoxyethyl)(methyl)amino)phenyl)acrylamide] | < 20 |  | < 20 | < 20 | < 20 | < 20
C=CC(=O)Nc1cc(Nc2ncc(C)c(-n3cc(CN4CCC4)c(-c4ccccc4)n3)n2)c(OC)cc1N1CCOCC1 [Compound 121, N-(5-(4-(4-(azetidin-1-ylmethyl)-3-phenyl-1H-pyrazol-1-yl)-5-methylpyrimidin-2-ylamino)-4-methoxy-2-morpholinophenyl)acrylamide] | < 20 |  | < 20 | < 20 | < 20 | < 20
C=CC(=O)Nc1cc(Nc2ncc(C)c(-n3cc(CN4CCC4)c(C(C)C)n3)n2)c(OC)cc1N1CCOCC1 [Compound 125, N-(5-(4-(4-(azetidin-1-ylmethyl)-3-isopropyl-1H-pyrazol-1-yl)-5-methylpyrimidin-2-ylamino)-4-methoxy-2-morpholinophenyl)acrylamide] | < 20 |  | < 20 | < 20 | < 20 | < 20
C=CC(=O)Nc1cc(Nc2nccc(-n3cc(CN(C)C)c(C(C)(C)C)n3)n2)c(OC)cc1N(CC)CCOC [Compound 126, N-(5-(4-(3-tert-butyl-4-((dimethylamino)methyl)-1H-pyrazol-1-yl)pyrimidin-2-ylamino)-2-(ethyl(2-methoxyethyl)amino)-4-methoxyphenyl)acrylamide] | < 20 |  | < 20 | < 20 | 20 to 200 | < 20
C=CC(=O)Nc1cc(Nc2nccc(-n3cc(CN(C)C)c(-c4cccnc4)n3)n2)c(OC)cc1N1CCOCC1 [Compound 128, N-(5-(4-(4-((dimethylamino)methyl)-3-(pyridin-3-yl)-1H-pyrazol-1-yl)pyrimidin-2-ylamino)-4-methoxy-2-morpholinophenyl)acrylamide] | < 20 |  | < 20 | < 20 | < 20 | < 20
C=CC(=O)Nc1cc(Nc2ncc(C)c(-n3cc(CN(C)C)c(C4CC4)n3)n2)c(OC)cc1N(C)C1COC1 [Compound 132, N-(5-(4-(3-cyclopropyl-4-((dimethylamino)methyl)-1H-pyrazol-1-yl)-5-methylpyrimidin-2-ylamino)-4-methoxy-2-(methyl(oxetan-3-yl)amino)phenyl)acrylamide] | < 20 |  | < 20 | < 20 | < 20 | < 20
C=CC(=O)Nc1cc(Nc2nccc(-n3cc(CN(C)C)c(-c4ccncc4)n3)n2)c(OC)cc1N1CCOCC1 [Compound 136, N-(5-(4-(4-((dimethylamino)methyl)-3-(pyridin-4-yl)-1H-pyrazol-1-yl)pyrimidin-2-ylamino)-4-methoxy-2-morpholinophenyl)acrylamide] | < 20 |  | < 20 | < 20 | < 20 | < 20
C=CC(=O)Nc1cc(Nc2nccc(-n3cc(CN(C)CC)c(C4CC4)n3)n2)c(OC)cc1N1CCN(C(C)=O)CC1 [Compound 137, N-(2-(4-acetylpiperazin-1-yl)-5-(4-(3-cyclopropyl-4-((ethyl(methyl)amino)methyl)-1H-pyrazol-1-yl)pyrimidin-2-ylamino)-4-methoxyphenyl)acrylamide] | < 20 |  | < 20 | < 20 | < 20 | < 20
C=CC(=O)Nc1cc(Nc2nccc(-n3cc(CN(C)CC)c(C)n3)n2)c(OC)cc1N1CCOCC1 [Compound 145, N-(5-(4-(4-((ethyl(methyl)amino)methyl)-3-methyl-1H-pyrazol-1-yl)pyrimidin-2-ylamino)-4-methoxy-2-morpholinophenyl)acrylamide] | < 20 |  | < 20 | < 20 | 20 to 200 | < 20
